B1: NT-3: Neurotrophin-3 (R & D Systems) (protein, UniProt P20783 139-257, looked up)
Neurotrophin-3: YAEHKSHRGEYSVCDSESLWVTDKSSAIDIRGHQVTVLGEIKTGNSPVKQYFYETRCKEARPVKNGCRGIDDKHWNSQCKTSQTYVRALTSENNKLVGWRWIRIDTSCVCALSRKIGRT
B2: BDNF: brain-derived neurotrophic factor (R & D Systems), known promoter of neural stem cell differentiation (protein, UniProt P23560 19-247, looked up)
Neurotrophic factor BDNF …: APMKEANIRGQGGLAYPGVRTHGTLESVNGPKAGSRGLTSLADTFEHVIEELLDEDQKVRPNEENNKDADLYTSRVMLSSQVPLEPPLLFLLEEYKNYLDAANMSMRVRRHSDPARRGELSVCDSISEWVTAADKKTAVDMSGGTVTVLEKVPVSKGQLKQYFYETKCNPMGYTKEGCRGIDKRHWNSQCRTTQSYVRALTMDSKKRIGWRFIRIDTSCVCTLTIKRGR

Tests used:
[1] = literature; cited from earlier work
[2] = literature; cited from earlier work; remark: listed apart in the source
rat cortical stem cells [3] = assay: Neuronal differentiation of rat cortical stem cells (β-tubulin III immunofluorescence, cell counting); assay type: cell-based; settings: rat cortical stem cells; for effect on neuronal differentiation (percentage of β-tubulin-III expressing cells) in words: 6 days, vs control; for percentage of β-tubulin III expressing neurons (mean+SD): daily treatment 6 days, 10 ng/ml BDNF, 20 ng/ml NT-3, untreated control 6.2+1.8%
Text: Isolation of cortical and striatal stem cells. Timed pregnant Sprague Dawley rats were obtained from Taconic at embryonic age E14–E15 were sacrificed by inhalation of excess carbon dioxide. The abdomen of the rat was cleaned with 70% ethanol and the uterus was removed quickly and aseptically on the bench top. The uterus was placed in ice cold HBSS (GIBCO Cat. #20012-027) in a 10 cm petridish. After rinsing the uterus in PBS, embryos were removed from the uterus, rinsed in HBSS and collected in cold HBSS (buffered with HEPES and sodium bicarbonate) in a 10 cm petridish and placed on ice.
Plating, expansion and passaging of cortical and striatal stem cells. A generous amount of the triturated cell suspension was left in the original 15 ml tube to avoid fibroblast contamination in cultures. About 4–5 ml of the 6 ml of cells suspension was used for plating. Cells were plated at a concentration of 1.3×10^3 cells to 3.0×10^3 per cm^2 in 100 mm dish. This culture is designated P0 (passage 0).
(§1) Following plating cells were expanded for about 3–4 days (Passage 1, P1). Cells were treated daily with 10 ng/ml bFGF. The cultures were never permitted to reach more than 70% confluency. Cultures were then passaged as follows: 10 ml of HBSS without Ca^2+ and Mg^2+ was added to each 100 mm dish and the cells incubated at 37° C. for 5–15 minutes, or until sufficient numbers of the stem cells were rounded up. It is not expected that all cells in the culture will round up as there are several cell types in the culture at P0. The pH of the HBSS should be neutral at all times during this incubation. Cells were then removed from the dish by pipetting with a 5 ml pipette, and collected in a 15 or 50 ml conical tube, and centrifuged at 1000 g for 5 minutes. Cells were gently re-suspended in medium, counted, and plated at a density of 1×10^6 cells in 10 cm dishes and expanded for about 2 days in bFGF (Passage 1, P1). At that time the cells were passaged as described and plated onto pre-coated poly-L-ornithine/fibronectin vessels at concentrations indicated below for each experiment. Cells were treated with bFGF for 2 additional days. Before each treatment the bFGF was removed from the cells by washing twice with DMEM/F 12 to induce cell differentiation. For neurite outgrowth experiments, cells were seeded at 5×10^3 cells/well in 24-well plates and treated immediately.
(§2) Drug treatment. For immunofluorescence and Western analysis, cells were treated daily with either 0.5 mM of valproate (Sigma), 10 ng/ml of BDNF (R & D Systems), 20 ng/ml of NT-3 (R & D Systems), 1 nM 9cis retinoic acid (Sigma) or a dilution of NCM for 6 or 7 days. In some experiments valproate was also added with NCM and/or 9cis RA for 7 days. For human stem cell experiments, valproate (0.5 mM) or BDNF (25 ng/ml) was added for 9 days. For neurite outgrowth experiments, cells were treated for 1 day with 0.5 mM valproate or 50 ng/ml of BDNF. Where applicable, medium was changed every 2 days. After about 5–10 days, preferably on day 6 (i.e., after 6 days of drug exposure) the cells were fixed with a 4% solution of para-formaldehyde (PFA) in PBS, prepared as follows:
Immunofluorescent staining and visualization. Cells were plated at 20,000 cells/well in poly-L-ornithine/fibronectin (1 mg/ml) coated 24-well plates. After fixation, the PBS was aspirated from the fixed cells and the cells were treated with blocking solution (10% normal goat serum-NGS-Jackson Labs), 0.3% Triton-Sigma, in PBS) to saturate non-specific sites and permeabilize the cells. […]

rat cortical stem cells [4] = assay: Neurite outgrowth of neurons derived from rat cortical stem cells (ArrayScan neurite outgrowth index); assay type: cell-based; settings: 1 day; 0.5 mM valproate, 50 ng/ml BDNF; control 35.1+0.3
Description: as §1, with “At that time the cells were passaged as described and plated onto pre-coated poly-L-ornithine/fibronectin vessels at concentrations indicated below for each experiment. Cells were treated with bFGF for 2 additional days. Before each treatment the bFGF was removed from the cells by washing twice with DMEM/F 12 to induce cell differentiation. For neurite outgrowth experiments, cells were seeded at 5×10^3 cells/well in 24-well plates and treated immediately.” left out
For analysis of neurite outgrowth, digital images were taken with an ArrayScan HCS System (Cellomics, Pa.) of 100 cells/well treated with valproate (0.5 mM) and BDNF (50 ng/ml) for 1 day. […] Neurite outgrowth index is defined as the percentage of cells whose neurites total more than 20 μm in length, and is calculated using Cellomics' Neurite Outgrowth application.

[5] = test system: human striatal stem cells (line 161); assay: Neuronal differentiation of human striatal stem cells (β tubulin III neurons, total cells); assay type: cell-based; settings: 9 days, 0.5 mM valproate, BDNF 25 ng/ml, untreated control 40%
Description: Expansion and differentiation of striatal human stem cells. Human stem cells were provided from ReNeuron Inc. (U.K.). Striatum was obtained after 6 to 12 weeks of gestation from routine legal abortion. Cell line was provided by ReNeuron at passage 16. The stem cells were expanded in untreated 25 cm^2 tissue culture flasks (Nunc, USA) in the presence of 20 ng/ml and 10 ng/ml of human recombinant EGF and bFGF respectively, in NSA basal serum-free medium (Euroclone, U.K). Fresh medium and growth factors were added every 3 days. In these conditions stem cells were growing as floating neurospheres. After 4 weeks, the neurospheres were harvested, treated with a mild papain treatment in HBSS and dissociated into a single cell suspension. Cells were counted and viability was estimated by trypan blue exclusion method. Cells were differentiated by growth factors removal. The cells were plated in NSA medium at 20,000 cells/well on LabTek permanox culture slides of 8 wells precoated with laminin (1 μg/ml). Cells were treated with valproate and BDNF for 9 days at 37° C. and a saturated humidified atmosphere of 5% CO2, 1% O2 and 94% N2. Fresh medium and re-treatment with factors was performed every 3 days.
as §2
Immunofluorescent staining and visualization. Cells were plated at 20,000 cells/well in poly-L-ornithine/fibronectin (1 mg/ml) coated 24-well plates. […]
For counting, three to five different fields of interest at magnification 10× or 20× were chosen randomly. For immunofluorescence, 3 different black and white pictures were taken by field of interest with a digital camera CoolSnap Fx (Princeton) corresponding to the exposure of Cy2, Cy3 and Hoechst fluorescence. […] The percentage of neurons, astrocytes and GABAergic cells was determined by comparing the number of cells immunopositive for β-tubulin III, GFAP and GABA to the number of bis-benzamide stained nuclei (i.e., total cell number). […]

Row | Molecule | teratogenic activity [1] | effect on proliferation and differentiation [2] | other results
1 | CCCCC(CCCC)C(=O)O [2-butylhexnoic acid] | in vivo teratogenic activity | inhibit proliferation and enhance differentiation | –
2 | C#CCC(CCC)C(=O)O (stereo not drawn) [R-4-yn-valproate] | Non-teratogenic | have not been shown to affect differentiation | –
3 | C#CC[C@H](CCC)C(=O)O [(s)-4-yn-valproate] | in vivo teratogenic activity | inhibit proliferation and enhance differentiation | –
4 | CC1=C(/C=C/C(C)=C\C=C\C(C)=C\C(=O)O)C(C)(C)CCC1 [9-cis RA, 9-cis retinoic acid] | – | – | neuronal differentiation compared to control, in words (rat cortical stem cells [3]; daily treatment 7 days, 0.5 mM valproate, 0.5× NCM, 1 nM 9-cis RA): increased the neuronal differentiation
5 | CCCCC(CC)C(=O)O (stereo not drawn) [2-ethylhexanoic acid] | in vivo teratogenic activity | inhibit proliferation and enhance differentiation | –
6 | CCC=C(CCC)C(=O)O [2-en-valproate] | Non-teratogenic | have not been shown to affect differentiation | –
7 | CCCC(CC(C)C)C(=O)O (stereo not drawn) [4 methyl-valproate] | Non-teratogenic | have not been shown to affect differentiation | –
8 | CCCCC(CCC)C(=O)O (stereo not drawn) [2-propylhexanoic acid] | in vivo teratogenic activity | inhibit proliferation and enhance differentiation | –
9 | B1 | – | – | effect on neuronal differentiation (percentage of β-tubulin-III expressing cells) in words (rat cortical stem cells [3]): didn't have any effect; percentage of β-tubulin III expressing neurons (mean+SD) (rat cortical stem cells [3]; 0.5 mM valproate): 8+1%
10 | B2 | – | – | neurite index (percentage of cells whose neurites total more than 20 μm in length) (rat cortical stem cells [4]): 38.3+1; neuronal differentiation [5]: 58%; effect on neuronal differentiation (percentage of β-tubulin-III expressing cells) in words (rat cortical stem cells [3]): increased the percentage of β-tubulin-III expressing cells over control but was less effective than valproate; percentage of β-tubulin III expressing neurons (mean+SD) (rat cortical stem cells [3]; 0.5 mM valproate): 12.7+2%
